Measured values: article PMC9516332 (Frontiers in Oncology, 2022)
Where two headings read alike, the source gives them in different places.

Columns and labels:
[1] = system: 134 cancer cell lines; experiment: Cell viability assay (ATPlite, 72 hours), IC50 on cancer cell line panel
[2] = system: AP-1060 (ETV6-NTRK3); experiment: Cell viability assay; conditions: read-out: IC50 in cell proliferation assay

`FC(F)(F)c1ccc(CNc2ccc(Cc3c[nH]c4ncc(Cl)cc34)cn2)cn1` [pexidartinib] gave an IC50 ([1]; Homo sapiens, MIA PaCa-2, read-out: IC50 in cell proliferation assay, MIA PaCa-2 cell line) of over 31.6 µM, an IC50 ([1]; Homo sapiens, MKN-45, read-out: IC50 in cell proliferation assay, MKN45 cell line (MET amplification)) of over 31.6 µM and an IC50 ([1]; Homo sapiens, MOLM-13, read-out: IC50 in cell proliferation assay, MOLM-13 cell line (FLT3 ITD)) of 0.191 µM. For the same compound, the IC50 ([1]; Homo sapiens, MOLT-4, read-out: IC50 in cell proliferation assay, MOLT-4 cell line) was over 31.6 µM, the IC50 ([1]; Homo sapiens, MV4-11, read-out: IC50 in cell proliferation assay, MV4-11 cell line (FLT3 ITD)) was 0.254 µM and the IC50 ([1]; Homo sapiens, MeWo, read-out: IC50 in cell proliferation assay, MeWo cell line) was over 31.6 µM. The IC50 ([1]; Homo sapiens, NCCIT, read-out: IC50 in cell proliferation assay, NCC-IT cell line) was over 31.6 µM, the IC50 ([1]; Homo sapiens, NCI-H82, read-out: IC50 in cell proliferation assay, cell line NCI-H82) was over 31.6 µM and the IC50 ([1]; Homo sapiens, NCI-H460, read-out: IC50 in cell proliferation assay, NCI-H460 cell line) was 3.33 µM. For the same compound, the IC50 ([1]; Homo sapiens, NCI-H661, read-out: IC50 in cell proliferation assay, NCI-H661 cell line) was over 31.6 µM, the IC50 ([1]; Homo sapiens, NCI-H716, read-out: IC50 in cell proliferation assay, cell line NCI-H716 (FGFR2-COL14A1)) was 17 µM and the IC50 ([1]; Homo sapiens, NCI-H1650, read-out: IC50 in cell proliferation assay, NCI-H1650 cell line (EGFR exon19del)) was over 31.6 µM. The IC50 ([1]; Homo sapiens, NCI-H1975, read-out: IC50 in cell proliferation assay, NCI-H1975 cell line (EGFR p.L858R + p.T790M)) was over 31.6 µM, the IC50 ([1]; Homo sapiens, NCI-H2228, read-out: IC50 in cell proliferation assay, NCI-H2228 cell line (EML4-ALK)) was over 31.6 µM and the IC50 ([1]; Homo sapiens, OVCAR-3, read-out: IC50 in cell proliferation assay, cell line OVCAR-3) was over 31.6 µM. The IC50 ([1]; Homo sapiens, PFSK-1, read-out: IC50 in cell proliferation assay, cell line PFSK-1) was over 31.6 µM, the IC50 ([1]; Homo sapiens, RL95-2, read-out: IC50 in cell proliferation assay, cell line RL95-2 (EGFR p.A289V)) was over 31.6 µM and the IC50 ([1]; Homo sapiens, RPMI-7951, read-out: IC50 in cell proliferation assay, cell line RPMI-7951 (BRAF p.V600E)) was 26.5 µM. The IC50 ([1]; Homo sapiens, RS4-11, read-out: IC50 in cell proliferation assay, cell line RS4;11) was over 31.6 µM, the IC50 ([1]; Homo sapiens, Rec1, read-out: IC50 in cell proliferation assay, cell line REC-1) was 16 µM and the IC50 ([1]; Homo sapiens, SHP77, read-out: IC50 in cell proliferation assay, cell line SHP-77) was over 31.6 µM. For the same compound, the IC50 ([1]; Homo sapiens, SK-BR-3, read-out: IC50 in cell proliferation assay, cell line SK-BR-3 (ERBB2 amplification)) was over 31.6 µM, the IC50 ([1]; Homo sapiens, SK-N-AS, read-out: IC50 in cell proliferation assay, cell line SK-N-AS) was over 31.6 µM and the IC50 ([1]; Homo sapiens, SK-N-FI, read-out: IC50 in cell proliferation assay, cell line SK-N-FI) was over 31.6 µM. For the same compound, the IC50 ([1]; Homo sapiens, SK-N-MC, read-out: IC50 in cell proliferation assay, cell line SK-N-MC) was over 31.6 µM, the IC50 ([1]; Homo sapiens, SK-N-SH, read-out: IC50 in cell proliferation assay, cell line SK-N-SH (ALK p.F1174L)) was over 31.6 µM and the IC50 ([1]; Homo sapiens, SNU-5, read-out: IC50 in cell proliferation assay, cell line SNU-5 (MET amplification)) was over 31.6 µM. For the same compound, the IC50 ([1]; Homo sapiens, SNU-16, read-out: IC50 in cell proliferation assay, cell line SNU-16 (FGFR2 amplification)) was 8.76 µM, the IC50 ([1]; Homo sapiens, SNU-C2B, read-out: IC50 in cell proliferation assay, cell line SNU-C2B (EGFR p.R165Q)) was over 31.6 µM and the IC50 ([1]; Homo sapiens, SU-DHL-1, read-out: IC50 in cell proliferation assay, cell line SU-DHL-1 (NPM1-ALK)) was over 31.6 µM. The IC50 ([1]; Homo sapiens, SU-DHL-6, read-out: IC50 in cell proliferation assay, cell line SU-DHL-6) was over 31.6 µM, the IC50 ([1]; Homo sapiens, SUP-T1, read-out: IC50 in cell proliferation assay, cell line SUP-T1) was over 31.6 µM and the IC50 ([1]; Homo sapiens, SW48, read-out: IC50 in cell proliferation assay, cell line SW48 (EGFR p.G719S)) was over 31.6 µM. For the same compound, the IC50 ([1]; Homo sapiens, SW480, read-out: IC50 in cell proliferation assay, cell line SW480) was over 31.6 µM, the IC50 ([1]; Homo sapiens, SW626, read-out: IC50 in cell proliferation assay, cell line SW626) was over 31.6 µM and the IC50 ([1]; Homo sapiens, SW780, read-out: IC50 in cell proliferation assay, cell line SW780 (FGFR3-BAIAP2L1)) was 5.07 µM. It also gave an IC50 ([1]; Homo sapiens, SW837, read-out: IC50 in cell proliferation assay, cell line SW837) of over 31.6 µM, an IC50 ([1]; Homo sapiens, SW872, read-out: IC50 in cell proliferation assay, cell line SW872 (BRAF p.V600E)) of over 31.6 µM and an IC50 ([1]; Homo sapiens, SW900, read-out: IC50 in cell proliferation assay, cell line SW900) of over 31.6 µM. For the same compound, the IC50 ([1]; Homo sapiens, SW948, read-out: IC50 in cell proliferation assay, cell line SW948) was 19.9 µM, the IC50 ([1]; Homo sapiens, SW982, read-out: IC50 in cell proliferation assay, cell line SW982 (BRAF p.V600E)) was over 31.6 µM and the IC50 ([1]; Homo sapiens, SW-620, read-out: IC50 in cell proliferation assay, cell line SW620) was over 31.6 µM. The IC50 ([1]; Homo sapiens, T98G, read-out: IC50 in cell proliferation assay, cell line T98G) was over 31.6 µM, the IC50 ([1]; Homo sapiens, TCC-SUP, read-out: IC50 in cell proliferation assay, cell line TCCSUP) was over 31.6 µM and the IC50 ([1]; Homo sapiens, THP-1, read-out: IC50 in cell proliferation assay, cell line THP-1) was over 31.6 µM. For the same compound, the IC50 ([1]; Homo sapiens, U2OS, read-out: IC50 in cell proliferation assay, cell line U2OS) was over 31.6 µM, the IC50 ([1]; Homo sapiens, U-87 MG, read-out: IC50 in cell proliferation assay, cell line U-87MG ATCC) was over 31.6 µM and the IC50 ([1]; Homo sapiens, U-118-MG, read-out: IC50 in cell proliferation assay, cell line U-118MG) was over 31.6 µM. It also gave an IC50 ([1]; Homo sapiens, UMUC3, read-out: IC50 in cell proliferation assay, cell line UM-UC-3) of over 31.6 µM, an IC50 ([1]; Hs766T, read-out: IC50 in cell proliferation assay, Hs 766T cell line) of over 31.6 µM and an IC50 ([1]; L-82, read-out: IC50 in cell proliferation assay, L-82 cell line (NPM1-ALK)) of over 31.6 µM. The IC50 ([1]; Rh30, read-out: IC50 in cell proliferation assay, cell line Rh30) was over 31.6 µM, the IC50 ([1]; read-out: IC50 in cell proliferation assay, 11-18 cell line (EGFR p.L858R)) was over 31.6 µM and the IC50 ([1]; read-out: IC50 in cell proliferation assay, Hs 852.T cell line) was over 31.6 µM. It also gave an IC50 ([1]; read-out: IC50 in cell proliferation assay, JAR cell line) of over 31.6 µM, an IC50 ([1]; read-out: IC50 in cell proliferation assay, cell line 5637) of 18.3 µM and an IC50 ([1]; read-out: IC50 in cell proliferation assay, cell line A-388) of over 31.6 µM. For the same compound, the IC50 ([1]; read-out: IC50 in cell proliferation assay, cell line DB) was over 31.6 µM, the IC50 ([1]; read-out: IC50 in cell proliferation assay, cell line DEL (NPM1-ALK)) was over 31.6 µM and the IC50 ([1]; read-out: IC50 in cell proliferation assay, cell line ES-2 (BRAF p.V600E)) was over 31.6 µM. The IC50 ([1]; read-out: IC50 in cell proliferation assay, cell line PA-1) was 17.3 µM, the IC50 ([1]; read-out: IC50 in cell proliferation assay, cell line PC-3) was over 31.6 µM and the IC50 ([1]; read-out: IC50 in cell proliferation assay, cell line RD) was over 31.6 µM. For the same compound, the IC50 ([1]; read-out: IC50 in cell proliferation assay, cell line RKO (BRAF p.V600E)) was over 31.6 µM, the IC50 ([1]; read-out: IC50 in cell proliferation assay, cell line RL) was over 31.6 µM and the IC50 ([1]; read-out: IC50 in cell proliferation assay, cell line RT-4 (FGFR3-TACC3)) was over 31.6 µM. For the same compound, the IC50 ([1]; read-out: IC50 in cell proliferation assay, cell line SR (NPM1-ALK)) was 27.3 µM, the IC50 ([1]; read-out: IC50 in cell proliferation assay, cell line T24) was over 31.6 µM and the IC50 ([1]; read-out: IC50 in cell proliferation assay, cell line TT (RET p.C634W)) was over 31.6 µM. The IC50 ([1]; read-out: IC50 in cell proliferation assay, cell line VA-ES-BJ) was over 31.6 µM and the IC50 [2] was over 31.6 µM.
